Measurements published in the OPERA property sets (Mansouri et al. 2018).
Peptide text beside a SMILES is read from it.

SMILES	logP	also measured
NC(=O)Cc1cccs1	0.33	–
c1ccc2cnccc2c1	2.08	–
C=C(C)C(=O)OCC(C)C	2.66	–
CC(C)NNC(=O)COc1ccc(Cl)cc1	2.02	–
CC(=O)C(C)(C)C	1.2	–
CCCCOC(N)=O	0.85	–
O=C1CN=C(c2ccccc2)c2cc(Cl)ccc2N1CC1CC1	3.73	–
CCC[C@@H]1C[C@@H](C(=O)N[C@@H]([C@H]2O[C@H](SC)[C@H](O)[C@@H](O)[C@H]2O)[C@@H](C)O)N(C)C1	0.2	–
CCc1ccccc1S(I)=C(N(C)C)N(C)C (stereo not drawn)	0.32	–
O=C1NCCN1c1ncc([N+](=O)[O-])s1	0.95	–
N=C(NCCCCCCNC(=N)NC(=N)Nc1ccc(Cl)cc1)NC(=N)Nc1ccc(Cl)cc1	–	logD (pH 5.0): 0.08
ClCc1ccc(Cl)cc1Cl	3.82	–
O=c1[nH]cnc2ccccc12	0.77	–
CCC(C)C(NC(=O)C(CC(N)=O)NC(C)=O)C(N)=O (stereo not drawn) (Ac-Asn-Ile-NH2; configuration not given here)	-1.43	–
Clc1ccc2ccccc2n1	2.71	–
O=C(O)C1COc2ccccc2O1 (stereo not drawn)	1.4	–
CC(=O)NC(Cc1ccccc1)C(N)=O (stereo not drawn)	-0.04	–
C=CCNCCC	1.33	–
CCC(C)(C)Cl	2.52	–
OCCCCCc1cccnc1	1.41	–
COCCOC	-0.21	–
O=C(O)c1cccc(O)c1	1.5	–
O=c1c2ccccc2sc2ccccc12	3.99	–
c1cncc(CCN2CCCC2)c1	1.34	–

SMILES	logP	also measured
O=c1n[n+]([O-])ccn1C1OC(CO)C(O)C1O (stereo not drawn)	-2.43	–
O=C(Oc1ccccc1)Oc1ccccc1	3.28	–
O=C(O)CBr	0.41	–
Cc1cccc(C(=O)NN)c1	0.74	–
CCN1CCN(C(=O)NC(C(=O)NC2C(=O)N3C(C(=O)O)=C(CSc4nnnn4C)CSC23)c2ccc(O)cc2)C(=O)C1=O (stereo not drawn)	-0.74	–
CCNc1nc(NCC(C)C)nc(SC(F)F)n1	4.3	–
CC12C=CC(=O)C=C1CCC1C2C(O)CC2(C)C1CCC2(O)C(=O)COC1OC(CO)C(O)C(O)C1O (stereo not drawn)	0.27	–
O=C1NC(=S)NC(=O)C1C(=O)Nc1ccccc1	0.14	–
CC(=O)Nc1cccc2nccnc12	1.06	–
Nc1ccc(Cl)cc1N	1.28	–
CCCCCOC(=O)c1cc(O)c(O)c(O)c1	2.67	–
CON(C)C(=O)Nc1ccc(OCCCCOc2ccccc2)cc1	3.57	–
CCc1ccc2ccccc2c1	4.38	–
Clc1cccc(C(Cl)(Cl)Cl)n1	3.41	–
NCCCCc1ccccn1	0.86	–
CCCC[N+](=O)[O-]	1.47	–
C#CC(C)N(C)C(=O)Nc1ccc(Cl)cc1 (stereo not drawn)	3	–
COP(=S)(OC)SCN1C(=O)c2ccccc2C1=O	2.78	–
CCCCCl	2.64	–
N#Cc1ccc(C#N)cc1	0.93	–
CCOP(=S)(OCC)N1C(=O)c2ccccc2C1=O	3.48	–
CCOP(=S)(OCC)SCCS(=O)(=O)CC	1.87	–
CCCOc1c(OC)cc(CCN)cc1OC	1.7	–
O=C(Nc1ccc(Br)cc1)C(F)(F)F	3.34	–

SMILES	logP	also measured
Oc1cnc2ccccc2n1	0.8	–
CCCCC(=O)c1ccc[nH]1	2.42	–
C=CCCCCCCCCC(=O)O	3.86	–
COCCNC(=S)C(F)(F)Cn1cnc([N+](=O)[O-])n1	0.66	–
C[Se]c1ccccc1	2.87	–
CC(=O)OC(OC(C)=O)c1ccc([N+](=O)[O-])o1	1.06	–
C=CNP(=O)(NC=C)NC(=O)c1ccc(OC)cc1	1.08	–
O=C1CC(=O)N(c2ccccc2)N1c1ccccc1	1.45	–
c1ccc2c(c1)Cc1ccccc1-2	4.18	–
c1ccc(OCCOc2ccccc2)cc1	3.81	–
Fc1ccc(CCl)cc1	2.73	–
c1nnnn1C12CC3CC(CC(C3)C1)C2	2.95	–
NNC(=O)c1ccc(I)cc1	1.55	–
Cc1ccc(OCC(=O)O)cc1	1.86	–
COc1ccc(C=CC(=O)O)cc1OC	2.34	–
O=[N+]([O-])c1cc(Cl)c(O)c(Cl)c1Cl	3.93	–
O=C(O)CCCc1ccc(N(CCCl)CCCl)cc1	–	logD (pH 7.4): 1.7
Cc1ccccc1NS(=O)(=O)c1ccc(N)cc1	2.03	–
O=C(NN1CCCCCC1)NS(=O)(=O)c1ccc(Cl)cc1	1.64	–
O=C(O)COc1ccccc1Br	2.04	–
Nc1cccc2cccnc12	1.79	–
NC(=O)NO	-1.8	–
CCC(C)CC(=O)OCC1CCC(n2cnc3c(=O)[nH]cnc32)O1 (stereo not drawn)	1	–
CCNC(C)C	0.93	–

SMILES	logP	also measured
CN(C)C(=O)OCc1ccc(OCc2ccccc2)cc1	3.27	–
CNC(=O)Oc1cccc(C(C)C)c1	2.63	–
NNC(=O)c1ccccc1Br	0.26	–
COCCN(CCOC)N=O	-0.38	–
O=c1[nH]c(=O)c2[nH]cnc2[nH]1	-0.73	–
N#Cc1cccc2[nH]ccc12	2.46	–
CN(C)C	0.16	–
O=NN1CCCCC1	0.36	–
CC(=O)c1cccnc1	0.43	–
O=C(CBr)NC(CO)C(O)c1ccc([N+](=O)[O-])cc1 (stereo not drawn)	0.66	–
OCCn1nnc2ccccc21	0.5	–
CNC(=O)Oc1ccccc1C#N	0.86	–
Clc1ccccc1-c1ccccc1	4.53	–
CC1OC(OC2C(O)CC(OC3C(O)CC(OC4CCC5(C)C(CCC6C5CC(O)C5(C)C(C7=CC(=O)OC7)CCC65O)C4)OC3C)OC2C)CC(OC(=O)C2OC(O)CC(O)C2O)C1O (stereo not drawn)	-1.77	–
Cc1ccc(C(O)c2ccccc2)cc1 (stereo not drawn)	3.13	–
CCN(CC)CCNC(=O)c1cc(F)c(N)cc1OC	2.28	–
COc1ccccc1N(C)C	1.63	–
COc1ccc(CC#N)cc1	1.7	–
CNC(=O)COc1ccccc1	1.02	–
CCc1ccncc1	1.65	–
O=C(O)CS	0.09	–
O=C(OCCOCCO)c1ccccc1	1.16	–
C#CCO	-0.38	–
Nc1cnnc2ccccc12	1.04	–

SMILES	logP	also measured
COc1cccc(OCC(=O)O)c1	1.38	–
COc1ccccc1NCC(C)=O	1.49	–
O=[N+]([O-])c1ccccc1Nc1ccccc1	3.66	–
CC1CCCCN1N=O (stereo not drawn)	0.71	–
Cc1cc2nc[nH]c2cc1C	2.35	–
O=[N+]([O-])CCO	-0.42	–
CCOC(=O)/C(=C\c1ccccc1Cl)C(C)=O	2.84	–
FC(F)Cl	1.08	–
Cc1cc2nccnc2cc1C	2.29	–
CCOP(=O)(Cc1ccc(-c2nc3ccccc3s2)cc1)N1CCCC1=O (stereo not drawn)	3	–
CCCc1ccccc1O	2.93	–
C=C1C(C)C2C(Cc3ccccc3)NC(=O)C23OC(=O)C=CC(O)CCCC(C)CC=CC3C1O (stereo not drawn)	3.37	–
CCCc1cc(C(=O)NN)ccn1	0.63	–
c1cc2c3c(cccc3c1)CC2	3.92	–
CCN(CC)N=Nc1ccc(C(N)=O)cc1	2.26	–
CN(N=O)C(=O)Nc1ccccc1	1.72	–
O=CO	-0.54	–
CCCCNCCC	2.12	–
CCNC(=O)c1ccccc1	1.28	–
CC(C(=O)O)c1ccc(N2CC3=C(CCCC3)C2=O)cc1 (stereo not drawn)	3.07	–
CCN(CC)S(=O)(=O)c1ccc(OC)c(N)c1	1.7	–
OCCCCc1ccncc1	0.9	–
C[C@]12CCC(=O)C=C1CC[C@@H]1[C@@H]2C(=O)C[C@@]2(C)[C@H]1CC[C@]2(O)C(=O)CO	1.47	–
O=Cc1ccc(OCC(=O)O)cc1	0.79	–

SMILES	logP	also measured
Cc1ccno1	0.45	–
CN(C)C(N(C)C)=S(I)c1ccc(Cl)cc1Cl (stereo not drawn)	0.47	–
CN(C)C(=O)OCc1cccc(N(C)C)c1	2.28	–
CCCCCOC(N)=O	1.35	–
O=Cc1cccc(C(F)(F)F)c1	2.47	–
COc1ccc2cnccc2c1	2.22	–
CN(C)CCCCc1cccnc1	1.49	–
CN1CC(=O)NC1=N	-1.76	–
CCO[Si](OCC)(OCC)c1ccccc1	2.99	–
CNC1=C(N2CC2)C(=O)C(NC)=C(N2CC2)C1=O	0.13	–
OCCCc1ccccn1	0.58	–
N#Cc1ccncc1C#N	0.24	–
NC(=O)OCc1ccccc1	1.2	–
CCOP(=O)(OCC)Oc1cc(C)nc(C(C)C)n1	2.07	–
O=C(NP(=O)(N1CC1)N1CC1)c1cccc(Br)c1	1.43	–
CC(C)OC(=O)c1cc(O)c(O)c(O)c1	1.54	–
C#CCCCC	2.73	–
OCCc1ccncc1	0.1	–
COC(=O)C(C)N(C(=O)c1ccco1)c1c(C)cccc1C (stereo not drawn)	2.61	–
O=NN1CC=CC1	0.26	–
O=C(O)c1ccccc1[N+](=O)[O-]	1.46	–
CCNCc1cccnc1	0.76	–
CC(=O)N[C@@H](CC(N)=O)C(=O)N[C@H](C(N)=O)C(C)C	-1.85	–
C=CCOc1ccccc1	2.94	–

SMILES	logP	also measured
CCCCNC(=O)NS(=O)(=O)c1ccc(Cl)cc1	2.81	–
COC(=O)c1cnc([N+](=O)[O-])n1C	0.51	–
O=C(CNC(=O)c1ccccc1)Oc1cccc([N+](=O)[O-])c1	2.46	–
Nc1ccn(C2CC(O)C(CO)O2)c(=O)n1 (stereo not drawn)	-1.77	–
CCCC[n+]1ccccc1.[Br-]	-2.69	–
Fc1c(F)c(F)c(F)c(F)c1F	2.55	–
O=C(O)COc1ccccc1Cl	1.86	–
CC(C)(C)NCCO	0.41	–
O=C(O)CCCc1ccccc1	2.42	–
CC(=O)c1ccc(C(O)C(CO)NC(=O)C(Cl)Cl)cc1 (stereo not drawn)	0.57	–
O=[N+]([O-])c1ccc2[nH]nnc2c1	1.95	–
Nc1nc2c(ncn2[C@H]2C[C@H](O)[C@@H](CO)O2)c(=S)[nH]1	-0.56	–
Clc1cc(Cl)c(Cl)c(-c2c(Cl)c(Cl)c(Cl)c(Cl)c2Cl)c1Cl	8.16	–
Cc1cc(N)nc(C)n1	0.39	–
FC(F)(F)Sc1ccccc1	3.57	–
COc1cccc(C=C(C(N)=O)C(N)=O)c1	0.01	–
COc1ccccc1OCC(=O)NNC(C)C	1.11	–
CC(=O)C(=Cc1ccc(Cl)cc1)C(C)=O	2.32	–
CC(=O)N(C)N=Nc1ccc(C(N)=O)cc1	1.37	–
NS(=O)(=O)c1ccc(I)cc1	1.59	–
CCOC(=O)C(=Cc1ccccc1[N+](=O)[O-])C(=O)OCC	2.54	–
O=C(CC(=O)C(F)(F)F)c1cccs1	1.46	–
FC(F)(F)c1nc2c(Cl)cc(Cl)c(Cl)c2[nH]1	3.78	–
COc1ccc(C(=O)N(C)C)cc1	0.96	–
